Test results reported in patent publication US20060100175A1, “Novel therapeutic use of low molecular weight heparins” (Aventis Pharma S.A., priority 1998, published 2006).

Test system: motoneurons plated on astrocyte monolayers
Assay: Potentiation effect on the stimulation of the trophic motoneuron activity (SIN-1 treated astrocyte monolayers)
Type: cell-based, rat
Conditions: SIN-1 2 mM, 1 hour on astrocyte monolayers
Protocol: The cultures enriched in motoneurons are prepared using the centrifugation method described by R. L. Schnaar and A. E. Schaffner, J. Neurosci., 1, 204-217 (1981) and modified by W. Camu and C. E. Henderson, J. Neurosci. Methods, 44, 59-70 (1992). Spinal cords from E15 rat embryos are dissected sterilely and the spinal notochords are removed. They are then cut up and incubated for 15 minutes at 37° C. in PBS (phosphate buffered saline: 137 mM NaCl, 2.68 mM KCl, 6.45 mM Na2HPO4, 1.47 mM KH2PO4) to which 0.05% of trypsin has been added. The dissociation of the cells is completed by trituration with the end of a 1 ml pipette in the culture medium supplemented with bovine serum albumin (BSA) and with DNAase. The cell suspension is spread onto a band of 6.5% weight/volume metrizamide in L15 medium (sold by Gibco BRL) and centrifuged at 500 g for 15 minutes. The band of the interface containing the motoneurons is recovered. […]
The number of motoneurons is evaluated by counting labeled cells in a surface area of 1.44 cm^2 under a microscope giving a 200-fold magnification. The values are expressed as a number of motoneurons per cm^2 or a percentage of the number of motoneurons present in the cultures maintained with trophic factors (BDNF/NT5 […]). […]

[NH-]c1c[n+](N2CCOCC2)no1 [SIN-1] was tested, and the “Number of motoneurons % with respect to the control” value was 125%.
